Assay results from US20230109839A1, “THERAPEUTIC AGENT FOR TAUOPATHIES” (SUMITOMO PHARMA CO., LTD., priority 2020, published 2023).

Biological target: T1, human Nav1.1 (Homo sapiens, UniProt P35498)
T1 construct: host or cells: HEK293
Assay: Amplification of Nav1.1-derived voltage-gated sodium current (Nav1.1 current), automated patch clamp (Test 1)
Format: cell-based
Conditions: Concentration for evaluation 1 μM; HEK293 cell line stably expressing human Nav1.1
Outline: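 Compound-induced change in ramp-evoked sodium current peak and AUC was expressed as 100×post/pre ratio minus 100. Recordings used automated patch clamp in voltage-clamp mode on a stable human Nav1.1 HEK293 line, including only cells above 500 pA. Compounds were delivered in extracellular fluid containing 1% DMSO.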

Point of comparison: O=C(Cn1ncc2ncc(C3=CCC4(CC3)CC4)nc21)Nc1ccc2ncnn2c1 [Example 656], “Nav1.1 current amplification rate (%)” value 70%. Against it:
- CCC1CC=C(c2cnc3cnn(CC(=O)Nc4ccc5ncnn5c4)c3n2)CC1 (stereo not shown) [Example 650] — lower, 26%
- CN(c1cnc2cnn(CC(=O)Nc3ccc4ccncc4n3)c2n1)C1CC1 [Example 724] — lower, 28%
- CC1CCN(c2cnc3cnn(CC(=O)Nc4ccc5ncnn5c4)c3n2)CC1(F)F (stereo not shown) [Example 658] — lower, 33%
- CN(c1cnc2cnn(CC(=O)Nc3ccc4cnncc4c3)c2n1)C1CC1 [Example 733] — higher, 76%
- CC1CC=C(c2ccc(=O)n(CC(=O)N3CCc4cc(OCC(C)(C)O)ccc43)n2)CC1 (stereo not shown) [Example 320] — lower, 10%
- CC1CC=C(c2ccc(=O)n(CC(=O)Nc3ccn4cncc4c3)n2)CC1 (stereo not shown) [Example 338] — higher, 241%
- CC1CC=C(c2ccc(=O)n(CC(=O)N3CCc4c3ccnc4C3=CCN(C)C3)n2)CC1 (stereo not shown) [Example 283] — lower, 15%
- O=C(Cn1ncc2cnc(C3=CCCCC3)nc21)Nc1ccn2ncnc2c1 [Example 786] — lower, 34%
- CN(c1cnc2cnn(CC(=O)N3CCc4c3cccc4C(C)(C)O)c2n1)C1CC1 [Example 734] — higher, 107%
- CN(C)c1nc2cc(NC(=O)Cn3ncc4ncc(N(C)C5CCCC5)nc43)ccc2o1 [Example 674] — lower, 62%
- CN(c1ncc2cnn(CC(=O)Nc3ccc4ncnn4c3)c2n1)C1CC(C)(C)C1 [Example 668] — higher, 72%
- CN(c1cnc2cnn(CC(=O)Nc3ccc(Cl)nc3)c2n1)C1CC1 [Example 722] — lower, 35%
- CN(c1cnc2cnn(CC(=O)N3CCc4c(-c5ccnnc5)cccc43)c2n1)C1CC1 [Example 699] — higher, 366%
- CC1CC=C(c2ccc(=O)n(CC(=O)Nc3ccc(C#N)nc3)n2)CC1 (stereo not shown) [Example 360] — higher, 200%

Same assay, conditions: Concentration for evaluation 3 μM; HEK293 cell line stably expressing human Nav1.1

Point of comparison: Cc1cccc(F)c1Oc1ncc2cnn(CC(=O)Nc3ccn4ncnc4c3)c2n1 [Example 783], “Nav1.1 current amplification rate (%)” value 11%. Against it:
- CN(c1cnc2cnn(CC(=O)N3CCc4cc(C#N)ccc43)c2n1)C1CCC1 [Example 691] — the same, 11%
- CC1CC=C(c2ccc(=O)n(CC(=O)N3CCc4c(OCC(C)(C)O)cccc43)n2)CC1 (stereo not shown) [Example 307] — higher, 320%
- CC1CC=C(c2ccc(=O)n(CC(=O)N3CCc4c(C5CN(C(=O)C(C)(C)O)C5)cccc43)n2)CC1 (stereo not shown) [Example 306] — higher, 532%

Same assay, conditions: Concentration for evaluation 10 μM; HEK293 cell line stably expressing human Nav1.1

Point of comparison: N#Cc1ccc(NC(=O)Cn2nc(N3CCCC(C(N)=O)C3)ccc2=O)cc1 (stereo not shown) [Example 8], “Nav1.1 current amplification rate (%)” value 4%. Against it:
- CC1CC=C(c2ccc(=O)n(CC(=O)N3CCc4c3ccnc4C3=CCNC3)n2)CC1 (stereo not shown) [Example 281] — higher, 40%
- CC1CCN(c2ccc(=O)n(CC(=O)Nc3ccnc(C(F)(F)F)c3)n2)CC1 [Example 52] — higher, 248%
- CC1CC=C(c2ccc(=O)n(CC(=O)N3CC=C(c4cccnc4)CC3)n2)CC1 (stereo not shown) [Example 402] — higher, 323%
- N#Cc1ccc(NC(=O)Cn2nc(N3CCCC3)ccc2=O)cc1 [Example 4] — lower, 3%
- COCOc1cccc2c1CCN2C(=O)Cn1nc(C2=CCC(C)(C)CC2)ccc1=O [Example 435] — higher, 262%
- N#Cc1ccc(NC(=O)Cn2nc(C3=CCCCC3)ccc2=O)cc1 [Example 39] — higher, 125%
- COc1cc(C2=CCC(C)(C)CC2)nn(CC(=O)Nc2ccn3ccnc3c2)c1=O [Example 456] — higher, 224%
- N#Cc1ccc(NC(=O)Cn2nc(C3CCCCC3)ccc2=O)cc1 [Example 40] — higher, 20%
- COc1cc(C2=CCC(C(F)(F)F)CC2)nn(CC(=O)Nc2ccc3ocnc3c2)c1=O (racemic) [Example 447] — higher, 148%
- COc1cc(C2=CCC(C)CC2)nn(CC(=O)Nc2ccn3ccnc3c2)c1=O (stereo not shown) [Example 463] — higher, 218%
- COc1cc(C2=CCC(C)CC2)nn(CC(=O)Nc2ccc3ocnc3c2)c1=O (racemic) [Example 449] — higher, 250%
- Cc1ccc(-c2ccc(=O)n(CC(=O)Nc3ccnnc3)n2)cc1 [Example 142] — higher, 34%
- C[C@H]1CC[C@@H](c2ccc(=O)n(CC(=O)Nc3ccc(C#N)cc3)n2)CC1 [Example 44] — higher, 59%
- CC1CCN(c2ccc(=O)n(CC(=O)Nc3ccc4oc(=O)n(C)c4c3)n2)CC1 [Example 81] — higher, 69%
- CC1(C)CC=C(c2ccc(=O)n(CC(=O)Nc3ccn4ccnc4c3)n2)C1 [Example 465] — higher, 186%
- CC1CC=C(c2ccc(=O)n(CC(=O)N3CCN(c4ccccn4)CC3)n2)CC1 (stereo not shown) [Example 394] — higher, 98%
- COc1ccc(NC(=O)Cn2nc(N3CCC(C)CC3)ccc2=O)cn1 [Example 62] — higher, 13%
- CN(c1cnc2cnn(CC(=O)Nc3cc4ccccc4nn3)c2n1)C1CC1 [Example 727] — higher, 71%
- N#Cc1ccc(NC(=O)Cn2nc(C3CCC(F)(F)CC3)ccc2=O)cc1 [Example 47] — higher, 11%

Same assay, conditions: Concentration for evaluation 50 μM; HEK293 cell line stably expressing human Nav1.1

Point of comparison: CC(C)N(C)c1cnc2cnn(CC(=O)Nc3ccc4ncnn4c3)c2n1 [Example 665], “Nav1.1 current amplification rate (%)” value 63%. Against it:
- Cc1ccc(-c2ccc(=O)n(CC(=O)N3CCc4ccccc43)n2)cc1 [Example 157] — lower, 29%
- CC1CC=C(c2ccc(=O)n(CC(=O)NC3CCN(c4ccccc4)C3)n2)CC1 (stereo not shown) [Example 369] — lower, 10%
- COCCCN1CC2(CCN(C(=O)Cn3nc(C4=CCC(C)CC4)ccc3=O)C2)C1 (stereo not shown) [Example 308] — lower, 9%

Same assay, conditions: HEK293, Concentration for evaluation 10 μM; HEK293 cell line stably expressing human Nav1.1; read-out: Nav1.1 current amplification rate (%)

Point of comparison: CC1CC2(C1)CN(c1cnc3cnn(CC(=O)Nc4ccc(C#N)nc4)c3n1)C2 [Example 749], activation at 10 µM 63%. Against it:
- CN(c1cnc2cnn(CC(=O)NCCc3ccccc3F)c2n1)C1CC2(CC2)C1 [Example 750] — lower, 27%

Same assay, conditions: HEK293, concentration for evaluation 1 μM; HEK293 stably expressing human Nav1.1; read-out: Nav1.1 current amplification rate (%)

Point of comparison: CN(CC1CCC1)c1ncc2cnn(CC(=O)Nc3cnc4cccnc4c3)c2n1 [Example 846], activation at 1 µM 158%. Against it:
- CN(c1ncc2cnn(CC(=O)Nc3ccc(C#N)nc3)c2n1)C1CC2(CC2)C1 [Example 845] — lower, 76%
- CC1CCN(c2ncc3cnn(CC(=O)Nc4ccn5ccnc5c4)c3n2)CC1 [Example 831] — lower, 128%
- CC1CCN(c2ncc3cnn(CC(=O)Nc4ccc(C#N)nc4)c3n2)CC1(F)F (stereo not shown) [Example 843] — higher, 171%
- CN(c1ccc2cnn(CC(=O)Nc3cnc4cccnc4c3)c2n1)C1CCCC1 [Example 891] — lower, 81%
- CN(CC1(C)CC1)c1ncc2cnn(CC(=O)Nc3cnc4cccnc4c3)c2n1 [Example 851] — lower, 89%

Same assay, conditions: concentration for evaluation 1 μM; HEK293 stably expressing human Nav1.1

Point of comparison: CC1CCN(c2ccc3cnn(CC(=O)Nc4ccc5cncnc5c4)c3n2)CC1 [Example 877], “Nav1.1 current amplification rate (%)” value 263%. Against it:
- CC1CCN(c2ncc3cnn(CC(=O)Nc4ccc5ncnn5c4)c3n2)CC1(F)F (stereo not shown) [Example 815] — lower, 86%
- CN(c1ncc2cnn(CC(=O)Nc3ccc4ncnn4c3)c2n1)C1CCCC1 [Example 814] — lower, 87%

Same assay, conditions: concentration for evaluation 50 μM; HEK293 stably expressing human Nav1.1

For CN(c1ncc2cnn(CC(=O)Nc3ccc4ncnn4c3)c2n1)C1CC1 [Example 818], the “Nav1.1 current amplification rate (%)” value was 195%.
